Results reported in US8802082B2, “Rhodamine derivatives for photodynamic diagnosis and treatment” (Université de Montreal, priority 1999, dated 2014).

Legend:
Format in all cases: cell-based, human
[1] = tested on: activated lymphocytes; test: Cellular content/efflux of TH9402 by flow cytometry, activated lymphocytes; settings: 10 μM TH9402, wash with 1 μg/ml cyclosporin-A, 110 minutes
Experimental: TH9402 cellular content in resting and activated lymphocytes was evaluated by flow-cytometry, since the intensity of TH9402 (green) fluorescence correlates with the cellular content in TH9402. Briefly, 10^6 cells/ml, previously activated or not with PHA, were incubated in X-vivo-5 medium supplemented with 2.5% human AB serum and 10 μM TH9402 for 40 minutes. These cells were washed two times with X-vivo medium supplemented with 10% AB serum and cells analysed by flow cytometry 30, 50, 70, 90 and 110 min after the end of the TH9402 incorporation period. […] Since cellular concentration of TH9402 correlates with the extent of cell elimination, the high concentration of TH9402 maintained in activated lymphocytes explains their sensitivity to photodynamic therapy. In contrast, the rapid efflux of TH9402 from resting lymphocytes should explain preservation of their proliferative activity.
In order to identify the mechanism responsible for the differential retention of TH9402 between activated and resting lymphocytes, cyclosporin-A was used to block the multidrug transporter (P-gp 170). These cells were incubated with 10 μM TH9402 for 8 minutes, and washed with medium containing 1 μg/ml cyclosporin-A or medium alone. TH9402 retention was subsequently evaluated by flow-cytometry (green fluorescence) (FIG. 5). […]

[2] = tested on: cells from subject A, activated against B; test: Allogeneic T cell activation (one-way mixed lymphocyte culture), PDT, then proliferation assay; settings: TH9402 PDT, 5-day proliferation assay
Experimental: Suspensions of cells were then incubated with 10 μM TH9402 for 40 minutes at 37° C. Cells were treated at 1×10^6 cells/mL in X-vivo-15 medium without phenol red (BioWhittaker, Walkersville, Md., USA) supplemented with 2,5% FBS. At the end of the incubation period, cells were spun down and the cell pellet resuspended in the X-vivo culture medium in the absence of dye, supplemented with 10% FBS. Cells were then placed in T-flasks (Corning, Cambridge, Mass., USA) for 90 minutes at 37° C. Following this second incubation in medium without dye, cells were exposed at 3 mm thickness to desired light energy, usually 5 joules/cm^2 using a previously described light delivery device (U.S. Pat. No. 5,798,523). Light energy was delivered using a fluorescent scanning lamp device with maximum wavelength around 512 nm.
The latter cells were serially diluted in order to obtain effector (treated cells) to target ratios ranging from 2:1 to 1:4 (4×10^4 treated effector cells/well) and incubated at 37° C. for 5 days. Eighteen hours prior to harvesting, 1 μCi of ^3H-thymidine was added. Cells were harvested using a PHD cell harvester (Cambridge Technology, Boston, Mass., USA). Radioactivity in the cell harvest was counted using a liquid scintillation counter (Beckman, Chicago, Ill., USA).
Another approach was used in this study to activate cells against specific target antigens. […]

[3] = tested on: non-lymphoid hematopoietic progenitors (CFU-GM, BFU-E, CFU-GEMM); test: Clonogenic assay of hematopoietic progenitors in methylcellulose after PDT; settings: same conditions of PDT as for B cells
Experimental: To evaluate the potential of PDT with TH9402 to eliminate other immune cell populations, normal human B cells were used as targets. Mononuclear cells from normal donors were obtained by leukopheresis, and resuspended at 20 million cells per ml during the whole PDT process. Cells were centrifuged and resuspended in pre-warmed (37° C.) X-Vivo-15 medium supplemented with 2.5% FCS and 10 U/ml heparin, with 5 μM TH9402. After 40 minutes of incubation at 37° C., cells were washed and resuspended in a X-Vivo-15 medium and 10% FCS with 10 U/ml heparin (medium free of TH9402) for an efflux period of 50 minutes before exposure to light energy (10 to 30 Joules/cm^2). Cells underwent light exposure at 20 million cells per ml and at a thickness of 2 cm.
To verify that the treatment preserved normal hematopoetic progenitors, we have used a clonogenic assay to measure the amount of hematopoetic clonogenic precursors present in the same samples. […]
Normal human mononuclear cells were obtained and subjected to various PDP conditions to determine the efficacy of eradication of B cells, specificity and safety of the procedure. […] In contrast, when these cells were evaluated for the elimination of non-lymphoid hematopoietic progenitors, usually less than 50% (half of a logarithm) of these progenitors were eliminated by the same conditions of PDT (FIG. 7B). […]

Br.COC(=O)c1ccccc1-c1c2ccc(=N)c(Br)c-2oc2c(Br)c(N)ccc12 [TH9402, 4,5-dibromorhodamine 123 (2-(4,5-dibromo-6-amino-3-imino-3H-xanthen-9-yl)-benzoic acid methyl ester) hydrobromide]
fluorescence intensity in activated cells treated or not treated with cyclosporin A [1]: identical | proliferation when exposed to C cells (mismatched unrelated) [2]: retained the capacity to proliferate | proliferation when reexposed to cells from B [2]: did not proliferate | non-lymphoid hematopoietic progenitors eliminated [3]: less than 50%
